Data taken from ChEMBL document CHEMBL3988442, “University of Dundee, Small-Polar-MMV Screening Library” (2021).

Test system: Schistosoma mansoni
Assay: High throughput screening of compounds against Schistosoma mansoni motility
Assay type: functional
Design: dose or concentration left out as unconfirmed

In the case of Cc1cccnc1NC(=O)CSc1ccc2c(c1)OCCO2, the “Percent Effect” value is reported as -40.06%.
For O=C(CSc1nc2c(cnn2CCO)c(=O)[nH]1)N1CCCCCC1, the “Percent Effect” value was -11.33%.
For CN1C(=O)C(C)(C)COc2cc(NS(=O)(=O)c3ccccc3)ccc21, the “Percent Effect” value was 35.25%.
For CC(C)c1nn(CC(=O)N2CCCCC2)c(=O)c2c1cnn2C(C)(C)C, the “Percent Effect” value was -88.07%.
In the case of CCCc1cc(=O)[nH]c2nnc(SCC(=O)NCc3ccc(C)cc3)n12, the “Percent Effect” value is reported as -78.33%.
With Cc1ccc(N2CCN(C(=O)COc3ccccc3)CC2)nn1 the “Percent Effect” value was -51.88%.
For COc1ccc(F)cc1S(=O)(=O)NCC(c1cccn1C)N(C)C (stereo not given), the “Percent Effect” value was -13.44%.
For O=C(NCC(Cc1cccc(F)c1)N1CCCC1=O)c1ccccc1 (stereo not given), the “Percent Effect” value was -23.79%.
In the case of CSCC(C)(O)CNC(=O)c1cc(Br)ccc1Cl (stereo not given), the “Percent Effect” value is reported as -27.72%.
CS(=O)(=O)N1CCc2nc(NC(=O)Nc3c(F)cccc3F)sc2C1 was tested, and the “Percent Effect” value was -37.65%.
For O=S(=O)(c1ccccc1)N1CCN(CCn2ccnc2)CC1, the “Percent Effect” value was -51.46%.
Cn1c(C(F)(F)F)nn(CCNC(=O)CSCc2ccccc2)c1=O was tested, and the “Percent Effect” value was -2.069%.
For O=C1CCSCC(C(=O)N2CCCC2)N1 (stereo not given), the “Percent Effect” value was -27.13%.
For O=C1CCSCC(C(=O)N2CCOCC2)N1 (stereo not given), the “Percent Effect” value was -55.74%.
For COC(=O)c1sccc1S(=O)(=O)N1CCC(Oc2cccnn2)CC1, the “Percent Effect” value was -55.3%.
In the case of Cc1cnc2n(c1=O)CC(C(=O)Nc1ccccc1Cl)CS2 (stereo not given), the “Percent Effect” value is reported as -94.31%.
With O=C(NCCn1ccc(-c2ccccn2)n1)c1ccncc1 the “Percent Effect” value was -46.65%.
For CN(C(=O)Cn1nc(-c2ccc(F)cc2)oc1=O)C1CCS(=O)(=O)C1 (stereo not given), the “Percent Effect” value was -46.67%.
With NC(=O)CN1CCC(NC(=O)c2ccn(-c3cccc(F)c3)n2)CC1 the “Percent Effect” value was 5.204%.
NC(=O)CN1CCCN(C(=O)c2ccn(-c3cccc(F)c3)n2)CC1 was tested, and the “Percent Effect” value was -9.604%.
With OC1CCN(Cc2cc3c(cc2Br)OCCO3)CC1 the “Percent Effect” value was 8.478%.
Cc1ccc(CC(=O)N2CCOC(c3nc(C(C)(C)C)n[nH]3)C2)cn1 (stereo not given) was tested, and the “Percent Effect” value was 7.474%.
CCNS(=O)(=O)c1ccc(C)c(C(=O)N(C)Cc2ccco2)c1 was tested, and the “Percent Effect” value was -32.86%.
With CCc1nnc2n1CCN(Cc1csc(-c3ccsc3)n1)C2 the “Percent Effect” value was -55.89%.
CN(C)CCN(Cc1cccc(C(F)(F)F)c1)C(=O)c1cc[nH]n1 was tested, and the “Percent Effect” value was 19.83%.
For Cc1nc(C2CCCN(C(=O)c3sccc3C3CC3)C2)no1 (stereo not given), the “Percent Effect” value was -33.52%.
With Cc1occc1C(=O)Nc1ccnc(OC2CCOC2)c1 (stereo not given) the “Percent Effect” value was -74.39%.
For Cc1n[nH]c(C2CN(CC(=O)NCCc3ccsc3)CCO2)n1 (stereo not given), the “Percent Effect” value was -117.4%.
For O=C(c1cc(Cl)c2c(c1)OCO2)N1CCN(c2ccccn2)CC1, the “Percent Effect” value was -95.4%.
For CC(C)NC(=O)NCCCc1cc(N)n(-c2ccccc2)n1, the “Percent Effect” value was -56.45%.
Nc1cc(CCCNC(=O)NC2CC2)nn1-c1ccccc1 was tested, and the “Percent Effect” value was -35.32%.
For COc1ccc(NC(=O)N2CCN(c3ncccn3)CC2)cn1, the “Percent Effect” value was -75.2%.
In the case of OCCOc1nc(-c2ccccc2Cl)no1, the “Percent Effect” value is reported as -41.46%.
With CN(CC(F)(F)F)C(=O)C1CSCN1C(=O)OC(C)(C)C (stereo not given) the “Percent Effect” value was -9.988%.
In the case of COc1ccc(NC(=O)NC(C)(C)c2noc(C)n2)cc1, the “Percent Effect” value is reported as -52.77%.
With Cc1nc2n(n1)CC(Nc1cc(C(F)(F)F)nc3ncnn13)CC2 (stereo not given) the “Percent Effect” value was -11.7%.
In the case of CC(C)CNC(=O)NC(=O)CNc1ccccc1SCC(C)C#N (stereo not given), the “Percent Effect” value is reported as -9.977%.
With CCc1ncc2c(n1)CN(Cc1nc(C)c(C)o1)CC2 the “Percent Effect” value was -33.77%.
In the case of CC(C)NC(=O)N1CCC(n2ccc(C(F)(F)F)n2)CC1, the “Percent Effect” value is reported as -11.19%.
CC(OCC(F)(F)F)C(=O)N1CCCCC1 (stereo not given) was tested, and the “Percent Effect” value was -17.04%.
For CN(CCC(F)(F)F)C(=O)[C@H]1CSCN1C(=O)OC(C)(C)C, the “Percent Effect” value was -27.39%.
With CCC1CN(Cc2ccccc2)CCN1Cc1nnc(C2CCC2)o1 (stereo not given) the “Percent Effect” value was 44.59%.
With CSC(C)C(=O)NCCCc1cc(N)n(-c2ccccc2)n1 (stereo not given) the “Percent Effect” value was -59.95%.
For COc1ccc(NC(C)C(=O)N2CCN(Cc3ccccc3)CC2)cn1 (stereo not given), the “Percent Effect” value was -29.98%.
In the case of CCc1noc(C(C)N(C)CC(=O)Nc2ccc(C)cc2)n1 (stereo not given), the “Percent Effect” value is reported as -42.61%.
In the case of Cc1ccn(-c2ccccc2NCc2cccnc2C)n1, the “Percent Effect” value is reported as -3.196%.
For CCc1ccccc1C(=O)N1CCN(S(C)(=O)=O)[C@@H](C)C1, the “Percent Effect” value was -27.03%.
With CCc1nc(CN2CCCC(N(C)Cc3cnn(C)c3)C2)no1 (stereo not given) the “Percent Effect” value was -19.11%.
With O=C(CN1CCCC1Cn1cncn1)Nc1cccnc1 (stereo not given) the “Percent Effect” value was -24.16%.
For COCCN1C(=O)CC(N2CCN(c3ccc(OC)cc3)CC2)C1=O (stereo not given), the “Percent Effect” value was -42.76%.
In the case of Cc1nn(C)c(N2CCOCC2)c1CNC(C)c1cccnc1 (stereo not given), the “Percent Effect” value is reported as -13.95%.
In the case of COc1ccc(CNC(=O)NC2CCC(O)CC2)c(C(F)(F)F)c1 (stereo not given), the “Percent Effect” value is reported as -1.236%.
With Cc1nc(C)n(CC2CCCCN2CC(=O)Nc2cccnc2)n1 (stereo not given) the “Percent Effect” value was -10.51%.
For O=C(CCc1cscn1)NS(=O)(=O)c1ccc2c(c1)CCC2, the “Percent Effect” value was 28.79%.
c1cc2c(cc1C1CCCN1Cc1nnnn1C1CC1)OCCO2 (stereo not given) was tested, and the “Percent Effect” value was 5.096%.
In the case of c1ccc(C2CCCN2Cc2nnnn2C2CC2)cc1 (stereo not given), the “Percent Effect” value is reported as -33.61%.
In the case of CCCc1n[nH]c(C2CN(C(=O)CCCn3cccn3)CCO2)n1 (stereo not given), the “Percent Effect” value is reported as -21.33%.
In the case of CCCc1n[nH]c(C2CN(CCn3cccn3)CCO2)n1 (stereo not given), the “Percent Effect” value is reported as 4.257%.
In the case of CCC(CC)c1cc(C(=O)N2CCCC(n3cncn3)C2)on1 (stereo not given), the “Percent Effect” value is reported as 1.073%.
In the case of Cc1ccc(C(=O)N2CCCC2c2nnc3n2CCCCC3)o1 (stereo not given), the “Percent Effect” value is reported as -40.92%.
In the case of CC(C)c1nc(CN(C)C2CCN(Cc3nc(C4CC4)no3)C2)no1 (stereo not given), the “Percent Effect” value is reported as -10.87%.
CN(CCCNc1cc(N2CCCC2CO)ncn1)S(C)(=O)=O (stereo not given) was tested, and the “Percent Effect” value was -51.96%.
With Cc1nn(C)c(C)c1NC(=O)CN1CCCC1c1noc(C2CC2)n1 (stereo not given) the “Percent Effect” value was -50.94%.
With CS(=O)(=O)c1ccccc1C(=O)NCC1Cc2ccccc2O1 (stereo not given) the “Percent Effect” value was -25.81%.
COc1ncccc1C(=O)NCC1Cc2ccccc2O1 (stereo not given) was tested, and the “Percent Effect” value was -86.67%.
With Cc1nccn1-c1cc(CNC(=O)c2ccccn2)ccn1 the “Percent Effect” value was -81.26%.
O=C(Nc1nccs1)N1CCCC(N2CCNC2=O)C1 (stereo not given) was tested, and the “Percent Effect” value was -22.52%.
With O=C(NCCCn1nc2ccccn2c1=O)NC1CCC(O)CC1 (stereo not given) the “Percent Effect” value was -74.25%.
For CC(C)(C)NC(=O)C1CSCN1S(=O)(=O)c1cccc(F)c1 (stereo not given), the “Percent Effect” value was -27.85%.
With O=C(CCc1nccs1)N1CCC(N2CCNC2=O)CC1 the “Percent Effect” value was -51.15%.
In the case of COc1ccc(NC(C)C(=O)NCCc2cccs2)cc1F (stereo not given), the “Percent Effect” value is reported as -15.23%.
Cc1cn(-c2ccccc2)nc1NS(=O)(=O)c1cc(C(=O)O)cs1 was tested, and the “Percent Effect” value was -15.39%.
For Cc1cn(-c2ccccc2)nc1NS(=O)(=O)c1cccc(C(=O)O)c1, the “Percent Effect” value was -30.44%.
For Cc1cc(N2CCC(N(C)C(=O)Nc3ccccc3)CC2)nc(C)n1, the “Percent Effect” value was -25.09%.
CCN1CCCC1CN(CCN(C)C)S(=O)(=O)c1cccc(C#N)c1 (stereo not given) was tested, and the “Percent Effect” value was 27.57%.
For Cc1cnn(CC2CN(CCc3ccncc3)CCO2)c1 (stereo not given), the “Percent Effect” value was -83.94%.
In the case of CC(C)S(=O)(=O)NCC1CCCN(C(=O)c2ccc3c(c2)OCCO3)C1 (stereo not given), the “Percent Effect” value is reported as -47.11%.
With CC1CN(C)c2ccccc2CN1C(=O)c1ccncc1 (stereo not given) the “Percent Effect” value was -35.26%.
C1CCCN(c2nc(C3CC3)ns2)CC1 was tested, and the “Percent Effect” value was -22.51%.
Cn1nnc2cc(C(=O)N3CCCC3Cc3ccccc3)ccc21 (stereo not given) was tested, and the “Percent Effect” value was -37.55%.
Cc1n[nH]c(C)c1C1CCCN1C(=O)CNC(=O)C(C)(C)C (stereo not given) was tested, and the “Percent Effect” value was -23.3%.
For CCN1CC(C(=O)NCc2ccnc(-n3ccnc3C)c2)CC1=O (stereo not given), the “Percent Effect” value was -29.1%.
CCCN1CCCn2nc(CNC(=O)CCc3scnc3C)cc2C1 was tested, and the “Percent Effect” value was 25.43%.
For Cc1cc(C[C@@H]2COC[C@@H]2NC(=O)CN2CCCC2)on1, the “Percent Effect” value was -45.11%.
For O=C(c1cccnc1)N1C[C@@H]2CC[C@H](C1)N(Cc1cccc(Cl)c1F)C2, the “Percent Effect” value was 6.232%.
Cc1ccc(F)c(OC2(C(=O)O)CCN(C(=O)N3CCCC3)CC2)c1 was tested, and the “Percent Effect” value was -4.164%.
O=C(c1ccccn1)N1CCCC(c2nccn2CC2CCC2)C1 (stereo not given) was tested, and the “Percent Effect” value was -9.087%.
COCC(=O)N1Cc2cnc(Cc3ccc(OC)cc3)nc2C1 was tested, and the “Percent Effect” value was -28.71%.
In the case of CN(CCN1CCCCCC1)C(=O)c1cc(CN2CCC(O)CC2)on1, the “Percent Effect” value is reported as -17.62%.
For Cn1nc(C(=O)N2CCCCC2c2nc3cc(F)ccc3[nH]2)ccc1=O (stereo not given), the “Percent Effect” value was -12.79%.
Cc1c[nH]c(CN(C)c2nc(C3CCCC3)nc3c2cnn3C)n1 was tested, and the “Percent Effect” value was -22.17%.
For CSc1ncc(C(=O)N2C[C@H]3CC[C@@H]2CN(Cc2ccccc2)C3)cn1, the “Percent Effect” value was -35.01%.
In the case of CC(C)C1CN(c2ncc(F)cn2)CCC(=O)N1Cc1ccc(F)cc1 (stereo not given), the “Percent Effect” value is reported as 75.74%.
For CN1CCN(Cc2nnc(C3CCN(CC4CC4)CC3)n2C)CC1, the “Percent Effect” value was -64.34%.
With Cc1ncc(-c2nc3cc(S(=O)(=O)N4CCCC4)ccc3n2C)cn1 the “Percent Effect” value was -72.39%.
With COc1nc2c(cc1C(=O)N1C[C@H](N)C[C@H]1C(=O)NC(C)C)CCC2 the “Percent Effect” value was 37.99%.
With O=C(c1ccccn1)N1CCCC(c2nccn2Cc2ccncc2)C1 (stereo not given) the “Percent Effect” value was -73.06%.
With COC(=O)c1ccc2ccn(CC3CCNC3)c(=O)c2c1 (stereo not given) the “Percent Effect” value was -40.15%.
CCC(=O)N1CCc2[nH]cnc2C12CCN(C(=O)CCS(C)(=O)=O)CC2 was tested, and the “Percent Effect” value was -12.74%.
In the case of Cc1ccsc1CN(Cc1ccccn1)CC(C)C, the “Percent Effect” value is reported as 6.222%.
In the case of CSCCCN1CCn2nc(CNC(C)=O)cc2C1, the “Percent Effect” value is reported as -25.09%.
O=C(CSc1ccncc1)N1C[C@H]2CC[C@@H]1CN(Cc1cccnc1)C2 was tested, and the “Percent Effect” value was -27.79%.
CC1CCN(Cc2cnc(S(=O)(=O)CC3CC3)n2CC2CCCO2)CC1 (stereo not given) was tested, and the “Percent Effect” value was -34.33%.
With COCCCC1(CO)CCCN(CCS(C)(=O)=O)C1 (stereo not given) the “Percent Effect” value was -38.37%.
In the case of CN1CCC(c2nnc(CN3CCC(O)CC3)n2C)CC1, the “Percent Effect” value is reported as -3.365%.
For O=C(CSc1ncccn1)N1C[C@H]2CC[C@@H]1CN(Cc1ccncc1)C2, the “Percent Effect” value was -45.84%.
With CC(C)C(=O)N1CCN(C(=O)c2cscn2)[C@H]2CS(=O)(=O)C[C@H]21 the “Percent Effect” value was -16.72%.
In the case of CC(=O)c1cc(CN2C[C@H]3CC[C@@H]2CN(S(=O)(=O)N(C)C)C3)cs1, the “Percent Effect” value is reported as -16.28%.
For CC(C)(C)c1cc(CN2CC[C@@H](NC(=O)c3cccnc3)[C@H](O)C2)n[nH]1, the “Percent Effect” value was -5.341%.
With COC(=O)CN1CC(c2nc(Cc3ccccc3)no2)C1.O=C(O)C(=O)O the “Percent Effect” value was -0.4449%.
